Experimental findings from ChEMBL document CHEMBL3507680, “University of Dundee, Gates Library screen for HepG2 cell viability” are described below.

A short description of this data set: Human HepG2 cell viability assay in 384 well format. The format is toxicity, cell-based. Also on record: dose 125 nL, time 70.5 hour; cytotoxicity at 70.5 h: concentration not given beside the values. Particulars: HepG2 cells, read-out: Inhibition.
`N#CC(NC(=O)c1cccc2c1OCCO2)c1ccc(F)cc1F` (stereo not drawn): the cytotoxicity at 70.5 h was -4.12%. With `O=C(CN1CCCS1(=O)=O)Nc1ccc(OC2CCCC2)c(Cl)c1`, the cytotoxicity at 70.5 h is -0.366%. Under `CSc1c[nH]nc1NS(=O)(=O)c1ccc(C)c(C)c1` stands -2.13%.

In the case of `Cc1ccc(-c2ncc(CN3CCN(S(N)(=O)=O)CC3)s2)o1`, the cytotoxicity at 70.5 h turned out to be 0.625%. Under `COc1c(C2CCCN2Cc2nccn2C)c(C)nn1C` (stereo not drawn) stands 2.44%. As to `CCN(C)S(=O)(=O)N(Cc1cscn1)c1ccccc1`, the cytotoxicity at 70.5 h was -7.14%. Under `COc1c(C2CCCN2Cc2nnc(C3CC3)n2C)c(C)nn1C` (stereo not drawn) stands -5.73%; under `O=c1ccncn1Cc1csc(C2CC2)n1`, -3.74%. The value for `Cc1cc(C)n2c(CNCc3ccc(OC(F)F)cc3)cnc2n1` was -9.15%.

On to `CC(C)c1nnc(CN2CC(n3cccn3)C2)o1`, for which the cytotoxicity at 70.5 h was -6.56%. The value for `CNC(=O)C1Cc2ccccc2CN1C(=O)CC(C)C` (stereo not drawn) was -10.1%; that for `CCN(CC)C(CNC(=O)c1ccc(-n2cncn2)cc1)c1ccsc1` (stereo not drawn) was -3.69%; that for `CN(C)C(CNC(=O)c1ccnc(-n2cncn2)c1)c1ccccc1` (stereo not drawn) was -9.4%. For `O=C(NCC1CCS(=O)(=O)C1)N(Cc1ccncc1)C1CC1` (stereo not drawn), the cytotoxicity at 70.5 h is -6.32%. Under `COc1ccccc1C(C)(C)NC(=O)c1ccc(F)c(NC(C)=O)c1` stands -7.74%; under `Cc1nnc(N2CCc3cncnc3C2)c(C#N)c1C`, -4.76%; under `COc1ccccc1C(C)(C)NC(=O)Nc1ccc(F)c(C(N)=O)c1`, -4.97%.

As to `NS(=O)(=O)c1ccc(NCc2ccco2)c2ncccc12`, the cytotoxicity at 70.5 h was 8.34%. The value for `CCc1cc(=O)[nH]c(-c2ccc(NC(C)CN3CCOCC3)nc2)n1` (stereo not drawn) was -0.904%; that for `CCC(c1ccc(F)cc1)S(=O)(=O)CCO` (stereo not drawn) was 15.3%. The value for `Cn1cc(C2CN(C(=O)Cc3coc(-c4ccccc4)n3)CCO2)cn1` (stereo not drawn) was 4.27%; that for `CC(C)CCC(=O)NCC(=O)N1CCCCCC1c1ccco1` (stereo not drawn) was -5.74%. As to `CCOCCCC(=O)N1CCN(c2cccc(OC)c2)C(C)C1` (stereo not drawn), the cytotoxicity at 70.5 h worked out at 12.3%. The value for `Cc1cc(I)cnc1NC(=O)C(C)(C)C` was 5.65%; that for `CCC(CC)N(Cc1cc(=O)n(C)c(=O)n1C)C1CC1` was 5.26%; that for `O=C(Cn1ccc(=O)[nH]c1=O)NCC1Cc2ccccc2O1` (stereo not drawn) was -11.6%. The value for `Cn1ccc(CN2CCCC(CNS(C)(=O)=O)C2)cc1=O` (stereo not drawn) was -10.1%; that for `CC(C)C(C(=O)NC1CC1)n1cnc2cc(F)c(F)cc21` (stereo not drawn) was -0.654%; that for `COC(=O)C(C)N(Cc1cc(=O)n(C)c(=O)n1C)C1CC1` (stereo not drawn) was 4.91%. Under `Clc1ccc(C2(NCc3noc(C4CC4)n3)CCOCC2)cc1` stands -8.54%; under `N#CC1(C(=O)N2CCC(Nc3cccnn3)CC2)CCCCC1`, 0.814%. As for `CC(Nc1ccc(N2C(=O)CCCC2=O)cc1)c1ccc(C#N)cc1` (stereo not drawn), the cytotoxicity at 70.5 h is -6.87%. As to `CCOCC(=O)Nc1ncc(I)cc1C`, the cytotoxicity at 70.5 h was -7.61%. With `CN(C)Cc1ccc(NC(=O)c2nccn3ccnc23)cc1`, the cytotoxicity at 70.5 h is -4.61%.

For the molecule `Cc1noc(C)c1NS(=O)(=O)c1cc(C(=O)O)cc(Cl)c1Cl`, the cytotoxicity at 70.5 h is -4.5%. As for `CCCOCC(=O)Nc1ncc(I)cc1C`, the cytotoxicity at 70.5 h came out at 4.92%.

For `Cc1nnc(-c2ccc(C(=O)Nc3ccnc(N(C)C)n3)cc2)o1`, the cytotoxicity at 70.5 h worked out at 4.63%.

Take `O=C(Nc1ccc(CN2CCOCC2)cc1)c1nccn2ccnc12`: the cytotoxicity at 70.5 h was 22.2%.

As to `c1ccc(N2CCC(NCc3cccc4cn[nH]c34)C2)cc1` (stereo not drawn), the cytotoxicity at 70.5 h stood at 7.7%. Under `CCOCCCC(=O)N1CCN(C(=O)Cc2cccc(OC)c2)CC1` stands -5.09%; under `COC(=O)CNC(=O)C(C(C)C)n1cnc2cc(F)c(F)cc21` (stereo not drawn), 5.81%. Take `Clc1ccc(C2(NCc3noc(C4CC4)n3)CCCC2)cc1`: the cytotoxicity at 70.5 h was -0.425%. The value for `CCOCCOC(C)C(=O)Nc1ccc2ccn(CCN(C)C)c2c1` (stereo not drawn) was -1.63%; that for `CN(C)c1nccc(NC(=O)c2ccncc2)n1` was -7.12%. Under `CC(C)(C)Oc1ccc(C(=O)N2CCOCC2c2ncon2)cc1` (stereo not drawn) stands -0.751%; under `O=C(c1ccc(SC(F)F)cc1)N1CCOCC1c1ncon1` (stereo not drawn), -3.71%; under `CC(C)CC(NC(=O)C1=CCCC1)C(=O)N1CCC(CO)CC1` (stereo not drawn), 0.304%. Under `CC(C)c1nc(C2CCCN(C(=O)CN3CCN(C)CC3)C2)no1` (stereo not drawn) stands -7.22%; under `CC(C)=CCS(=O)(=O)Cc1ccn(-c2cccc(F)c2)n1`, -6.79%.

`CCn1nc(C)c(CNC(=O)NCC(C)(O)c2ccccc2)c1C` (stereo not drawn): the cytotoxicity at 70.5 h is -3.1%. Under `CC(C)c1nc(C2CCCN(C(=O)CN3CCCNC3=O)C2)no1` (stereo not drawn) stands -6.67%; under `CC(C)NC(=O)CCNC(=O)Nc1cnn(-c2ccccc2Cl)c1`, -6.67%; under `CCOC(=O)c1cnn(-c2cc(C)ccn2)c1N`, 8.9%. Under `CCN1CCCN(c2ccc(-n3ccc(C)n3)nn2)CC1` stands 10.6%.

`CC(C)(C(=O)NCCS(N)(=O)=O)c1cccc(Br)c1`: the cytotoxicity at 70.5 h is -6.85%. Regarding `CC(CCc1ccccc1F)C(=O)NS(=O)(=O)CC1CC1` (stereo not drawn), the cytotoxicity at 70.5 h is -0.115%. The value for `CC(=O)c1c(C)cc(C)c(CS(=O)(=O)c2nccn2C)c1C` was 8.95%; that for `CC1CN(S(=O)(=O)c2ccc(F)cc2F)c2cccnc2O1` (stereo not drawn) was -6.28%.

With `Cc1ccc(S(=O)(=O)N2CC(C)Oc3ncccc32)c(C)c1` (stereo not drawn), the cytotoxicity at 70.5 h is -4.94%. Consider `CCOC(=O)C1CCN(C(=O)CN2CCCC2Cc2ccccc2)CC1` (stereo not drawn), for which the cytotoxicity at 70.5 h is -17.2%. Under `Cn1cc(C2(C)CN(Cc3ccc(N4CCCC4)nc3)CCO2)cn1` (stereo not drawn) stands -10.5%; under `CCc1ccc(C(C)NC(=O)CN(C)Cc2ccc(C)o2)cc1` (stereo not drawn), -15%. The value for `N#CCCNC(=O)CSc1cc(F)ccc1F` was -9.07%. Under `O=C(NCC(O)c1ccc(F)cc1F)c1ccccc1` (stereo not drawn) stands -4.27%; under `Cc1cccc(C(=O)NCC(O)c2ccc(F)cc2F)c1` (stereo not drawn), -0.893%; under `CN(CCC#N)C(=O)CSc1cc(F)ccc1F`, 5.2%. `N#CCCNC(=O)CSc1ccc(F)cc1F`: the cytotoxicity at 70.5 h is -5.86%.

On to `Cc1nc(NC(=O)C(C)N2CCN(c3cnccn3)CC2)sc1C` (stereo not drawn), for which the cytotoxicity at 70.5 h was -4.32%.

As to `Cc1cccc(C(=O)NCc2ccc(OCCN(C)C)cc2)c1C`, the cytotoxicity at 70.5 h is -6.51%. The value for `COc1c(C)cnc(CNC(=O)c2cc(C)nc3c2c(C)nn3C)c1C` was -6.5%. The value for `Cc1cc(CN(C)C(=O)NCc2ccnc(N(C)C)c2)no1` was -1.17%; that for `CCCS(=O)(=O)N1CCC(NCc2c(C)nn(C)c2OC)CC1` was -7.02%; that for `COc1c(CNC2CCN(CC(=O)NC3CC3)CC2)c(C)nn1C` was 2.59%. Take `N#Cc1ccccc1N1CCN(C(=O)NCCN2CCOCC2)CC1`: the cytotoxicity at 70.5 h came to 0.377%. The value for `CC(C)Nc1cccc(C(=O)NCC(O)c2cccc(F)c2)c1` (stereo not drawn) was -6.04%.

As to `Fc1ccc(-c2n[nH]cc2CNCCn2cccn2)cc1`, the cytotoxicity at 70.5 h is -4.83%. Under `Fc1ccc(CNCCn2cccn2)c(Cl)c1` stands 6.68%; under `COc1ccc(F)cc1C[S+]([O-])CC(=O)NCc1ccccc1C` (stereo not drawn), 11%. With `Cc1ncsc1CCN1CCC(N(C)Cc2ncc(C(C)C)o2)C1` (stereo not drawn), the cytotoxicity at 70.5 h stood at 38.4%. Under `NC(=O)CN1CCN(c2ccnc3c(F)ccc(F)c23)CC1` stands -1.57%; under `CN(C)C(=O)CN1CCN(c2ccnc3c(F)ccc(F)c23)CC1`, -4.33%; under `Cc1cc(NC(=O)CNC(C)(C)c2ccc3c(c2)OCO3)on1`, -2.77%. Under `NC(=O)c1cnc(NC2CCN(c3ccccn3)CC2)c(Cl)c1` stands -6.48%.

Take `Cc1cc(NC(=O)CNC(C)(C)c2ccc3c(c2)OCCO3)no1`: the cytotoxicity at 70.5 h worked out at 2.35%. As to `CCOCCCC(=O)Nc1c(-c2ccc(F)cc2)ncn1C`, the cytotoxicity at 70.5 h stood at 0.124%. Under `Cc1[nH]c(=O)sc1S(=O)(=O)N1CCCC1C(=O)NC1CC1` (stereo not drawn) stands -6.92%.

On to `CCOCC(=O)Nc1cc(C)cnc1OC`, for which the cytotoxicity at 70.5 h was -3.98%. Under `CCOCCC(=O)Nc1cc(C)cnc1OC` stands 14.7%; under `CCc1nc(CNC(=O)Nc2nc(COC)cs2)cs1`, -5.86%. Under `O=C(c1csc(-c2ccco2)n1)N1CCN2CCCCC2C1` (stereo not drawn) stands -4.49%; under `Cc1ccc(OCCC(=O)NCCCN2CCCC2=O)c(C)c1`, 17.8%; under `CCc1ncc2c(n1)CN(CC(O)COc1ccc(C#N)cc1)CC2` (stereo not drawn), -0.808%. The value for `COc1cccc2[nH]cc(CCNC(=O)N3CCC[C@H]3CO)c12` was -1.09%; that for `COc1cc2c(nn1)CCN(CC(O)COc1ccc(C#N)cc1)C2` (stereo not drawn) was 17.8%; that for `CCS(=O)(=O)NCCCNc1cc(N2CCCC2CO)ncn1` (stereo not drawn) was -4.09%. `O=C(NCCNc1ncccn1)N1CCCC1c1ccc(F)cc1` (stereo not drawn): the cytotoxicity at 70.5 h is -9.37%. Under `O=C(NCC(F)(F)F)C1CSCN1S(=O)(=O)c1cccc(F)c1` (stereo not drawn) stands -12%. The value for `COCC(=O)NCCCn1nc2ccccn2c1=O` was -15.5%; that for `CC(C)c1nn(C)c(N2CCOCC2)c1CNCc1cscn1` was -14.5%; that for `COc1ccccc1C(=O)NCCCN1CCCC1C(=O)N(C)C` (stereo not drawn) was -14.3%. The value for `O=C(CCc1ccccn1)N1CCCC(N2CCNC2=O)C1` (stereo not drawn) was -14.8%; that for `CN(C)C(=O)C1CCCN1CCCNC(=O)c1cccc2[nH]ncc12` (stereo not drawn) was 12.2%. On to `CC(CCc1ccccc1)NC(=O)CNCCCN(C)C` (stereo not drawn), for which the cytotoxicity at 70.5 h is -3.07%.
